# Results as given in PMC11864979, “First-in-class ultralong-target-residence-time p38α inhibitors as a mitosis-targeted therapy for colorectal cancer” (Nature Cancer, 2025).
# Values joined by “and” are separate entries in the source; they are usually repeats but may differ in a detail not shown here. Identical values can stand only once. Like-named read-outs stand apart in the source and are kept apart here.
# What was measured:
# KAP liver metastasis = assay: survival of wild-type mice with KAP liver metastasis; format: in vivo, mouse
# Protocol: Subcutaneous injection, splenic seeding or cecum injection of organoids was performed in 8–10-week-old C57BL/6 N/Crl, Rag2^−/− (B6.Cg-Rag2^tm1.1Cgn/J), or CB17 Scid beige (CB17.Cg-Prkdc^scidLyst^bg-J/Crl) mice, obtained from Charles River. The organoids were dissociated into single cells, washed with PBS and injected in a 1:1 mixture of PBS and Matrigel. For murine organoids, 1 × 10^5 cells were injected into the left and right flanks or the spleen capsule and 2 × 10^6 cells were injected into the cecum wall. For human organoids, 4 × 10^5 cells were injected into the flanks of CB17 Scid beige mice. For splenic seeding and cecum injection, mice were anaesthetized using ketamine (100 mg kg^−1, intraperitoneally) and xylazin (10 mg/kg, intraperitoneally) in NaCl and a small laparotomy below the thorax was performed.
# No mice were excluded during treatment studies.
# HCT 116 = assay: cell viability in human CRC cell line HCT 116; format: cell-based; details: 4 d
# Protocol: (§1) To generate KAP^2D cells, KAP organoids were isolated from Matrigel, fragmented by mechanical dissociation and plated without any extracellular matrix on common cell culture dishes. Phoenix-Eco packaging cells (CRL-3214), HCT-15 (CCL-225), HCT 116 (CCL-247), COLO 205 (CCL-222), LS 174T (CL-188), RKO (CRL-2577) and HT-29 (HTB-38) were obtained from the American Type Culture Collection. The cells were cultured at 37 °C and 7% CO2 with RPMI (KAP^2D cells) or DMEM (other cell lines), supplemented with 10% FBS and penicillin–streptomycin. KAP^2D cells were authenticated using PCR (Kras locus and Trp53 locus). Phoenix-Eco packaging cells and HCT-15, HCT 116, COLO 205, LS 174T, RKO and HT-29 cells were authenticated by the provider using short tandem repeat profiling. No commonly misidentified cell lines were used. Mycoplasma contamination was excluded by a PCR-based analysis.
# (§2) For in vitro treatment studies, organoids were mechanically dissociated and digested using TrypLE supplemented with 100 µg ml^−1 DNaseI and 10.5 µM Y-27632 dihydrochloride (Invitrogen) at 37 °C. A total of 1,000–2,000 single cells were plated per well in white 96-well plates (Greiner) in culture medium containing 10% GFR Matrigel or Cultrex BME. The treatment with doxycycline (5 µg ml^−1), pharmacological inhibitors or corresponding volumes of DMSO was started 24 h after plating. Doxycycline was obtained from Sigma-Aldrich. […] Cell viability was measured by means of CellTiter-Glo 3D or CellTiter-Glo 2.0 reagent (Promega) according to the manufacturers’ instructions and the Infinite M Plex reader (Tecan, i-control version 3.9.1 software). Results were normalized to vehicle (DMSO) or to shNC. For cell-doubling assays, the cell number was quantified at the corresponding time points using Guava EasyCyte flow cytometer (Luminex, CytoSoft v5.2 software).
# KAP^2D cells = assay: P-H3^S10 / α-tubulin staining, mitotic phases in KAP^2D cells; format: cell-based, mouse; details: replicates, experiment and repetition
# Protocol: Immunofluorescence staining on cells and organoids was performed on glass coverslips or tissue culture chambers (Sarstedt). Organoids were plated in medium containing 10% Matrigel or Cultrex BME. The cultures were fixed with 4% paraformaldehyde and stained with specific antibodies and DAPI (Vector Labs). All used antibodies and dilutions are listed in the Nature Portfolio Reporting Summary. For analyzing DNA synthesis, the Molecular Probes Click-iT EdU Alexa Fluor 555 kit was used 24 h after EdU incorporation with DAPI counterstaining. SA-β-Gal staining of cells was performed in cell culture dishes (cells) or tissue culture chambers (organoids) after fixation with 0.5% glutaraldehyde as described above. Human cultures were incubated with X-Gal solution at pH 6.0 for ~4 h. […] Positive cells were quantified using ImageJ version 1.53a software. The analysis of mitosis was performed with an LSM800 Airyscan (Zeiss) microscope (ZEN version 3.0 software). An Airyscan autofilter processing was applied before image analysis.
# HT-29 = assay: cell viability in human CRC cell line HT-29; format: cell-based; details: ED Fig. 9h, replicates; for viability at 0.0137 µM: HT-29, 0.0137 µM; for viability at 0.0412 µM: HT-29, 0.0412 µM
# Protocol: as §1, §2
# [1] = Homo sapiens, Repetition, read-out: HT-29 Cell viability (%)
# [2] = Homo sapiens, first experiment, read-out: HT-29 Cell viability (%)
smiles,measurement,setting,value
O=C(NCCN1CCOCC1)c1ccc2c(c1)C(=O)c1ccc(Nc3ccc(F)c(NC(=O)c4ccccc4)c3)cc1CC2 [Compound 1639],survival / therapeutic efficacy in KAP liver metastasis (in words),"KAP liver metastasis; 20 mg kg^−1 daily, start 5 weeks after organoid inoculation",slight but nonsignificant survival benefit
same,Survival,"KAP liver metastasis; single animals, 1 = event, 0 = censored, Fig. 6e",26 d of treatment and 29 d of treatment and 11 d of treatment and 12 d of treatment and 25 d of treatment and 27 d of treatment and 20 d of treatment
same,HCT 116 Cell viability (%),HCT 116; 0.0137 µM,91.07% and 92.02% and 85.19% and 84.20% and 84.23%
same,HCT 116 Cell viability (%),HCT 116; 0.0412 µM,81.63% and 80.34% and 77.04% and 76.76% and 74.10%
same,HCT 116 Cell viability (%),HCT 116; 0.1235 µM,88.84% and 91.52% and 85.54% and 79.01% and 86.05%
same,HCT 116 Cell viability (%),HCT 116; 0.3704 µM,94.73% and 98.85% and 85.83% and 87.08% and 84.20%
same,HCT 116 Cell viability (%),HCT 116; 1.1111 µM,93.31% and 91.15% and 89.63% and 87.68% and 87.77%
same,HCT 116 Cell viability (%),HCT 116; 3.3333 µM,77.27% and 77.51% and 74.83% and 76.92% and 78.08%
same,HCT 116 Cell viability (%),HCT 116; 10.0000 µM,46.79% and 45.46% and 36.02% and 37.60% and 41.48%
same,viability at 0.0137 µM,"HCT 116; Homo sapiens, HCT-116, 96 h, 0.0137 µM, read-out: HCT 116 Cell viability (%)",89.2%
same,viability at 0.0412 µM,"HCT 116; Homo sapiens, HCT-116, 96 h, 0.0412 µM, read-out: HCT 116 Cell viability (%)",83.7%
same,viability at 0.1235 µM,"HCT 116; Homo sapiens, HCT-116, 96 h, 0.1235 µM, read-out: HCT 116 Cell viability (%)",89%
same,viability at 0.3704 µM,"HCT 116; Homo sapiens, HCT-116, 96 h, 0.3704 µM, read-out: HCT 116 Cell viability (%)",94.1%
same,viability at 1.1111 µM,"HCT 116; Homo sapiens, HCT-116, 96 h, 1.1111 µM",90.8%
same,viability at 3.3333 µM,"HCT 116; Homo sapiens, HCT-116, 96 h, 3.3333 µM, read-out: HCT 116 Cell viability (%)",74%
same,viability at 10 µM,"HCT 116; Homo sapiens, HCT-116, 96 h, 10.0000 µM",45.5%
same,"Anaphase, % (of fully P-H3S10+ cells)",KAP^2D cells; Fig. 4f,14.94% and 12.77% and 11.59% and 15.15% and 10.11% and 8.57%
same,"Metaphase, % (of fully P-H3S10+ cells)",KAP^2D cells; Fig. 4f,17.24% and 21.28% and 8.70% and 19.70% and 24.72% and 20.00%
same,"Multipolar mitosis, % (of fully P-H3S10+ cells)",KAP^2D cells; Fig. 4f,9.20% and 12.77% and 8.70% and 9.09% and 10.11% and 8.57%
same,"Telophase, % (of fully P-H3S10+ cells)",KAP^2D cells; Fig. 4f,12.64% and 9.57% and 7.25% and 16.67% and 10.11% and 14.29%
same,"P-H3S10+ cells, fully positive",KAP^2D cells; Fig. 4d,5.80% and 5.96% and 4.15% and 4.12% and 5.10% and 3.55%
same,"P-H3S10+ cells, partially positive",KAP^2D cells; Fig. 4d,8.66% and 7.86% and 7.71% and 7.49% and 8.02% and 8.52%
same,HT-29 Cell viability (%),"HT-29; 0.0137 µM, Repetition",102.28% and 94.62%
same,HT-29 Cell viability (%),"HT-29; 0.0137 µM, first experiment",94.47% and 95.05%
same,HT-29 Cell viability (%),"HT-29; 0.0412 µM, Repetition",101.53% and 96.63%
same,HT-29 Cell viability (%),"HT-29; 0.0412 µM, first experiment",94.54% and 96.05%
same,HT-29 Cell viability (%),"HT-29; 0.1235 µM, Repetition",102.40% and 91.02%
same,HT-29 Cell viability (%),"HT-29; 0.1235 µM, first experiment",88.93% and 89.95%
same,HT-29 Cell viability (%),"HT-29; 0.3704 µM, Repetition",96.43% and 88.31%
same,HT-29 Cell viability (%),"HT-29; 0.3704 µM, first experiment",89.51% and 89.95%
same,HT-29 Cell viability (%),"HT-29; 1.1111 µM, Repetition",89.29% and 79.16%
same,HT-29 Cell viability (%),"HT-29; 1.1111 µM, first experiment",95.25% and 92.43%
same,HT-29 Cell viability (%),"HT-29; 3.3333 µM, Repetition",53.45% and 49.18%
same,HT-29 Cell viability (%),"HT-29; 3.3333 µM, first experiment",66.80% and 71.86%
same,HT-29 Cell viability (%),"HT-29; 10.0000 µM, Repetition",3.09% and 3.77%
same,HT-29 Cell viability (%),"HT-29; 10.0000 µM, first experiment",4.59% and 5.12%
same,viability at 0.0137 µM,HT-29; [1],102%
same,viability at 0.0137 µM,HT-29; [2],94.8%
same,viability at 0.0412 µM,HT-29; [1],105%
same,viability at 0.0412 µM,HT-29; [2],93.8%
same,viability at 0.1235 µM,"HT-29; Homo sapiens, HT-29, 0.1235 µM, Repetition, read-out: HT-29 Cell viability (%)",104%
